The results in this text go back to PMC9298037 (Chemmedchem, 2021).

The target of assay [1] is T1, MELK (Homo sapiens, UniProt Q14680). In words: biochemical. The conditions noted are these: for inhibition at 10 µM: read-out: Inh. %, single-point screen at 10uM concentration, Table S1.
Assay [2] concerns the target T1, MELK.

Read-outs that look alike come from different tables or passages of the source.

T1 sequence (Q14680 whole entry): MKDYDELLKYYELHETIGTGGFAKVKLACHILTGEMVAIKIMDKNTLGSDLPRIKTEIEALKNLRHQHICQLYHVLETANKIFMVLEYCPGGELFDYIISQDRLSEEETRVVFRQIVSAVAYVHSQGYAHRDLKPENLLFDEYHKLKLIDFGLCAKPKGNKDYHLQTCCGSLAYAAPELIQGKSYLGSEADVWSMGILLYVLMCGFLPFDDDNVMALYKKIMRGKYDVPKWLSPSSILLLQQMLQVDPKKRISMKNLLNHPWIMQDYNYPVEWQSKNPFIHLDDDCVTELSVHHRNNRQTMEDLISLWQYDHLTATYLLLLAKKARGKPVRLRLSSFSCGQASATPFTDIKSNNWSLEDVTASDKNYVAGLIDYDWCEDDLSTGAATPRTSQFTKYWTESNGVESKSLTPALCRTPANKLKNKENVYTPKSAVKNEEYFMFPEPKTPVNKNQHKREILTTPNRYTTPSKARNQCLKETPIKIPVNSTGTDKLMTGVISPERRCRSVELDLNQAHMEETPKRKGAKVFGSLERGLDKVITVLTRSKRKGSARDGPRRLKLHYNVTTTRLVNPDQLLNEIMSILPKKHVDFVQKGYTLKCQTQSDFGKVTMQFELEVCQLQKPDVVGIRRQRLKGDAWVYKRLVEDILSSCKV

In general, IC50 refers to the point on the concentration scale where inhibition reaches its midpoint. A high value points to weaker potency in that assay. `Cc1c2ccccc2cn2nc(-c3ccc(Cl)cc3Cl)nc12` [Compound 13, 2‐(2,4‐dichlorophenyl)‐10‐methyl‐[1,2,4]triazolo[1,5‐b]isoquinoline] registered an IC50 on MELK [1] of 24.1 µM. That is a double-digit micromolar value.

For the compound `CCc1c2ccccc2cn2nc(-c3ccc(Cl)cc3)nc12` [Compound 17, 2‐(4‐chlorophenyl)‐10‐ethyl‐[1,2,4]triazolo[1,5‐b]isoquinoline], on MELK [1], the IC50 is more than 3.7 µM.

Consider `Cc1c2ccccc2cn2nc(-c3ccc(C(F)(F)F)cc3)nc12` [Compound 8, 10‐methyl‐2‐(4‐(trifluoromethyl)phenyl)‐[1,2,4]triazolo[1,5‐b]isoquinoline], for which, on MELK [1], the inhibition at 10 µM was more than 40%.

With `COc1cccc(-c2nc3c(C)c4ccccc4cn3n2)c1` [Compound 5, 2‐(3‐methoxyphenyl)‐10‐methyl‐[1,2,4]triazolo[1,5‐b]isoquinoline], on MELK [1], the IC50 was 4.93 µM and the inhibition at 10 µM is more than 40%.

The compound `Cc1c2ccccc2cn2nc(-c3ccccn3)nc12` [Compound 11, 10‐methyl‐2‐(pyridin‐2‐yl)‐[1,2,4]triazolo[1,5‐b]isoquinoline] yielded an IC50 against MELK [1] of 6.3 µM.

As to `c1ccc(-c2nc3c4ccccc4ccn3n2)cc1` [ID 1855, 2‐phenyl‐[1,2,4]triazolo[3,2‐a]isoquinoline], the inhibition at 10 µM on MELK [1] was more than 40%.

With `COc1ccc(-c2nc3c(C)c4ccccc4cn3n2)cc1` [Compound 4, 2‐(4‐methoxyphenyl)‐10‐methyl‐[1,2,4]triazolo[1,5‐b]isoquinoline], at MELK [1], the midpoint of inhibition, the IC50, lay at 3.67 µM and the inhibition at 10 µM was more than 40%.

For the compound `CCc1c2ccccc2cn2nc(-c3cccc(OC)c3)nc12` [Compound 19, 10‐ethyl‐2‐(3‐methoxyphenyl)‐[1,2,4]triazolo[1,5‐b]isoquinoline], at MELK [1], the IC50 was 2.04 µM and the inhibition at 10 µM was more than 40%. The compound also came in with an activity boost on MELK [2] (in comparison to compound 5 (10-ethyl vs 10-methyl)) of 2.5 fold.

Consider `CCc1c2ccccc2cn2nc(-c3ccc(OC)cc3)nc12` [Compound 18, 10‐ethyl‐2‐(4‐methoxyphenyl)‐[1,2,4]triazolo[1,5‐b]isoquinoline], for which it took 0.794 µM to reach half-maximal inhibition at MELK [1] (IC50). In addition, at MELK [2] (MELK), the “inhibitory activity (in words)” value was “sub‐micromolar”. The activity boost at MELK [2] (over 3-methoxyphenyl counterpart 19) turned out to be 2.5 fold; at MELK [2] (over 10-methyl counterpart 4), 4.5 fold.
